Test results: PMC6547681 (Nature Communications, 2019)
Where “and” joins values, the source holds several entries; their conditions need not be identical. Equal values may be shown once. Read-outs that look alike come from different tables or passages of the source.

Test system: BCL-2 G101V
Assay: Steady-state competition SPR against immobilised BIMBH3 peptide, BCL-2 G101V
Format: binding, human
Settings: for Ki: BCL-2 G101V
Description: SPR experiments were performed as previously described. […] The lowest concentrations used in direct binding experiments were 1 nM for BIAcore 4000 and 0.1 nM for BIAcore S200 instruments, concentrations below these were below the sensitivity thresholds for the instruments. […] Direct binding experiments were fitted to a 1:1 binding site kinetic model, fitting on and off rates, in BIAevaluation software. For competition experiments steady-state responses were determined in BIAevaluation software according to the software defaults in affinity evaluation mode averaging responses for 5 sec. […] All affinity measurements were performed in at least two independent experiments using independent protein preparations.

## O=C(c1cc(-c2cc3c(cc2C(=O)N2Cc4ccccc4C[C@H]2CN2CCOCC2)OCO3)n2c1CCCC2)N(c1ccccc1)c1ccc(O)cc1 [S55746]
S55746 concentration 40, BCL-2 concentration 60 nM, independent experiment 2
  Raw data values in Figure 3g (SPR response): 291.594
S55746 concentration 40, BCL-2 concentration 60 nM, independent experiment 3
  Raw data values in Figure 3g (SPR response): 48.7177
S55746 concentration 40, BCL-2 concentration 70 nM, independent experiment 1
  Raw data values in Figure 3g (SPR response): 85.9498
S55746 concentration 40, BCL-2 concentration 70 nM, independent experiment 2
  Raw data values in Figure 3g (SPR response): 301.246
S55746 concentration 40, BCL-2 concentration 70 nM, independent experiment 3
  Raw data values in Figure 3g (SPR response): 49.6061
S55746 concentration 40, BCL-2 concentration 80 nM, independent experiment 1
  Raw data values in Figure 3g (SPR response): 87.455
S55746 concentration 40, BCL-2 concentration 80 nM, independent experiment 2
  Raw data values in Figure 3g (SPR response): 307.892
S55746 concentration 40, BCL-2 concentration 80 nM, independent experiment 3
  Raw data values in Figure 3g (SPR response): 50.2962
S55746 concentration 40, BCL-2 concentration 100 nM, independent experiment 1
  Raw data values in Figure 3g (SPR response): 89.2588
S55746 concentration 40, BCL-2 concentration 100 nM, independent experiment 2
  Raw data values in Figure 3g (SPR response): 318.485
S55746 concentration 40, BCL-2 concentration 100 nM, independent experiment 3
  Raw data values in Figure 3g (SPR response): 51.3212
S55746 concentration 40, BCL-2 concentration 150 nM, independent experiment 1
  Raw data values in Figure 3g (SPR response): 91.8217
S55746 concentration 40, BCL-2 concentration 150 nM, independent experiment 2
  Raw data values in Figure 3g (SPR response): 334.001
S55746 concentration 40, BCL-2 concentration 150 nM, independent experiment 3
  Raw data values in Figure 3g (SPR response): 52.4759
S55746 concentration 40, BCL-2 concentration 200 nM, independent experiment 1
  Raw data values in Figure 3g (SPR response): 93.5739
S55746 concentration 40, BCL-2 concentration 250 nM, independent experiment 2
  Raw data values in Figure 3g (SPR response): 347.773
S55746 concentration 40, BCL-2 concentration 250 nM, independent experiment 3
  Raw data values in Figure 3g (SPR response): 53.5471
S55746 concentration 60, BCL-2 concentration 10 nM, independent experiment 1
  Raw data values in Figure 3g (SPR response): 47.4597
S55746 concentration 60, BCL-2 concentration 10 nM, independent experiment 2
  Raw data values in Figure 3g (SPR response): 98.8052
S55746 concentration 60, BCL-2 concentration 20 nM, independent experiment 1
  Raw data values in Figure 3g (SPR response): 62.0582
S55746 concentration 60, BCL-2 concentration 20 nM, independent experiment 2
  Raw data values in Figure 3g (SPR response): 156.985
S55746 concentration 60, BCL-2 concentration 30 nM, independent experiment 1
  Raw data values in Figure 3g (SPR response): 69.7854
S55746 concentration 60, BCL-2 concentration 30 nM, independent experiment 2
  Raw data values in Figure 3g (SPR response): 196.195
S55746 concentration 60, BCL-2 concentration 40 nM, independent experiment 1
  Raw data values in Figure 3g (SPR response): 76.161
S55746 concentration 60, BCL-2 concentration 40 nM, independent experiment 2
  Raw data values in Figure 3g (SPR response): 224.521
S55746 concentration 60, BCL-2 concentration 50 nM, independent experiment 1
  Raw data values in Figure 3g (SPR response): 79.3118
S55746 concentration 60, BCL-2 concentration 50 nM, independent experiment 2
  Raw data values in Figure 3g (SPR response): 244.821
S55746 concentration 60, BCL-2 concentration 60 nM, independent experiment 1
  Raw data values in Figure 3g (SPR response): 82.6237
S55746 concentration 60, BCL-2 concentration 60 nM, independent experiment 2
  Raw data values in Figure 3g (SPR response): 261.933
S55746 concentration 60, BCL-2 concentration 70 nM, independent experiment 1
  Raw data values in Figure 3g (SPR response): 84.8163
S55746 concentration 60, BCL-2 concentration 70 nM, independent experiment 2
  Raw data values in Figure 3g (SPR response): 275.69
S55746 concentration 60, BCL-2 concentration 80 nM, independent experiment 1
  Raw data values in Figure 3g (SPR response): 85.9361
S55746 concentration 60, BCL-2 concentration 80 nM, independent experiment 2
  Raw data values in Figure 3g (SPR response): 286.55
S55746 concentration 60, BCL-2 concentration 100 nM, independent experiment 1
  Raw data values in Figure 3g (SPR response): 88.8819
S55746 concentration 60, BCL-2 concentration 100 nM, independent experiment 2
  Raw data values in Figure 3g (SPR response): 303.493
S55746 concentration 60, BCL-2 concentration 150 nM, independent experiment 1
  Raw data values in Figure 3g (SPR response): 91.2891
S55746 concentration 60, BCL-2 concentration 150 nM, independent experiment 2
  Raw data values in Figure 3g (SPR response): 325.735
S55746 concentration 60, BCL-2 concentration 200 nM, independent experiment 1
  Raw data values in Figure 3g (SPR response): 93.4484
S55746 concentration 60, BCL-2 concentration 250 nM, independent experiment 2
  Raw data values in Figure 3g (SPR response): 343.304
S55746 concentration 80, BCL-2 concentration 10 nM, independent experiment 3
  Raw data values in Figure 3g (SPR response): 22.8907
S55746 concentration 80, BCL-2 concentration 20 nM, independent experiment 3
  Raw data values in Figure 3g (SPR response): 32.1933
S55746 concentration 80, BCL-2 concentration 30 nM, independent experiment 3
  Raw data values in Figure 3g (SPR response): 37.5379
S55746 concentration 80, BCL-2 concentration 40 nM, independent experiment 3
  Raw data values in Figure 3g (SPR response): 41.1001
S55746 concentration 80, BCL-2 concentration 50 nM, independent experiment 3
  Raw data values in Figure 3g (SPR response): 43.4737
S55746 concentration 80, BCL-2 concentration 60 nM, independent experiment 3
  Raw data values in Figure 3g (SPR response): 45.424
S55746 concentration 80, BCL-2 concentration 70 nM, independent experiment 3
  Raw data values in Figure 3g (SPR response): 46.908
S55746 concentration 80, BCL-2 concentration 80 nM, independent experiment 3
  Raw data values in Figure 3g (SPR response): 48.0972
S55746 concentration 80, BCL-2 concentration 100 nM, independent experiment 3
  Raw data values in Figure 3g (SPR response): 49.7546
S55746 concentration 80, BCL-2 concentration 150 nM, independent experiment 3
  Raw data values in Figure 3g (SPR response): 51.7109
S55746 concentration 80, BCL-2 concentration 250 nM, independent experiment 3
  Raw data values in Figure 3g (SPR response): 53.091
read-out: S55746 KI (mean), competition vs BIMBH3 SPR surface, mean ± SD, n ≥ 2
  Ki: 36 nM and 35.7 nM
read-out: S55746 KI, single independent experiments, independent experiments 1-3
  Ki: 28.4 nM and 49.8 nM and 29 nM
